Source: PubChem BioAssay AID192 (DTP/NCI, 2004)
Where “and” joins values, the source holds several entries; their conditions need not be identical. Equal values may be shown once. Toxic doses and inconclusive results are not listed.

System: BDF1 mice, B16 melanoma ip, median survival T/C
Test: NCI In Vivo Anticancer Drug Screen. Data for tumor model B16 Melanoma (intraperitoneal) in B6D2F1 (BDF1) mice
Settings: endpoint: median survival time, higher = longer survival
Outline: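 The ratio T/C compares compound-treated mice with vehicle-treated controls, using survival or tumor size as the endpoint in a transplantable tumor model.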

[1] = dose: 100.0 mg/kg/injection, schedule: Q01DX009 (ip), vehicle: Klucel (hydroxypropylcellulose) (HPC)
[2] = dose: 200.0 mg/kg/injection, schedule: Q01DX009 (ip), vehicle: Klucel (hydroxypropylcellulose) (HPC)
[3] = dose: 400.0 mg/kg/injection, schedule: Q01DX009 (ip), vehicle: Klucel (hydroxypropylcellulose) (HPC)
[4] = dose: 25.0 mg/kg/injection, schedule: Q01DX009 (ip), vehicle: saline with Tween-80
[5] = dose: 50.0 mg/kg/injection, schedule: Q01DX009 (ip), vehicle: saline with Tween-80
[6] = dose: 100.0 mg/kg/injection, schedule: Q01DX009 (ip), vehicle: saline with Tween-80
[7] = dose: 200.0 mg/kg/injection, schedule: Q01DX009 (ip), vehicle: saline with Tween-80
[8] = dose: 100.0 mg/kg/injection, schedule: Q01DX009 (ip), vehicle: saline
[9] = dose: 200.0 mg/kg/injection, schedule: Q01DX009 (ip), vehicle: saline
[10] = dose: 1.56 mg/kg/injection, schedule: Q01DX009 (ip), vehicle: saline
[11] = dose: 3.13 mg/kg/injection, schedule: Q01DX009 (ip), vehicle: saline
[12] = dose: 6.25 mg/kg/injection, schedule: Q01DX009 (ip), vehicle: saline
[13] = dose: 6.25 mg/kg/injection, schedule: Q04DX003 (ip), vehicle: saline with Tween-80
[14] = dose: 12.5 mg/kg/injection, schedule: Q01DX009 (ip), vehicle: saline
[15] = dose: 25.0 mg/kg/injection, schedule: Q01DX009 (ip), vehicle: saline
[16] = dose: 50.0 mg/kg/injection, schedule: Q01DX009 (ip), vehicle: saline
[17] = dose: 12.5 mg/kg/injection, schedule: Q04DX003 (ip), vehicle: saline with Tween-80
[18] = dose: 25.0 mg/kg/injection, schedule: Q04DX003 (ip), vehicle: saline with Tween-80
[19] = dose: 12.5 mg/kg/injection, schedule: Q01DX009 (ip), vehicle: Klucel (hydroxypropylcellulose) (HPC)
[20] = dose: 25.0 mg/kg/injection, schedule: Q01DX009 (ip), vehicle: Klucel (hydroxypropylcellulose) (HPC)
[21] = dose: 50.0 mg/kg/injection, schedule: Q01DX009 (ip), vehicle: Klucel (hydroxypropylcellulose) (HPC)

COc1ccc2[nH]c3c(C)c4cc[n+](C)c(C)c4cc3c2c1
T/C (dose: 10.0 mg/kg/injection, schedule: Q04DX003 (ip), vehicle: water): 113 % of control | T/C (dose: 20.0 mg/kg/injection, schedule: Q04DX003 (ip), vehicle: water): 98 % of control | T/C (dose: 40.0 mg/kg/injection, schedule: Q04DX003 (ip), vehicle: water): 105 % of control | T/C (dose: 80.0 mg/kg/injection, schedule: Q04DX003 (ip), vehicle: water): 117 % of control

CCOc1ccc(NC(=O)c2ccccc2Cl)cc1
T/C [1]: 93 % of control | T/C [2]: 112 % of control | T/C [3]: 93 % of control

O=C(CCl)NC(Cc1ccc(O)cc1)C(=O)O (stereo not drawn)
T/C [4]: 105 % of control | T/C [5]: 101 % of control | T/C [6]: 95 % of control

CCC(C)C(NC(=O)OC(C)(C)c1ccc(-c2ccccc2)cc1)C(=O)O (stereo not drawn)
T/C [5]: 94 % of control | T/C [6]: 94 % of control | T/C [7]: 91 % of control

NC(=O)C(O)C(O)C(O)C(O)C(N)=O (stereo not drawn)
T/C [8]: 106 % of control | T/C [9]: 100 % of control

N=C(N)SCCCN
T/C (dose: 100.0 mg/kg/injection, schedule: Q04DX003 (ip), vehicle: saline): 109 % of control | T/C [9]: 93 % of control | T/C (dose: 200.0 mg/kg/injection, schedule: Q04DX003 (ip), vehicle: saline): 104 % of control

O=C1C(Br)=C(Br)C(=O)C1(Br)Br
T/C [10]: 100 % of control | T/C [11]: 105 % of control | T/C (dose: 3.13 mg/kg/injection, schedule: Q04DX003 (ip), vehicle: saline with Tween-80): 94 % of control | T/C [12]: 102 % of control | T/C [13]: 89 % of control

CCCCCCCCCCCCCCCCCC(=O)[O][Pb]([CH3])([CH3])[CH3]
T/C (dose: 1.25 mg/kg/injection, schedule: Q01DX009 (ip), vehicle: Klucel (hydroxypropylcellulose) (HPC)): 99 % of control | T/C (dose: 2.5 mg/kg/injection, schedule: Q01DX009 (ip), vehicle: Klucel (hydroxypropylcellulose) (HPC)): 99 % of control | T/C (dose: 5.0 mg/kg/injection, schedule: Q01DX009 (ip), vehicle: Klucel (hydroxypropylcellulose) (HPC)): 91 % of control

COC(=O)c1cccc(C)c1O
T/C [5]: 100 % of control | T/C [6]: 112 % of control

O=C(C=P(c1ccccc1)(c1ccccc1)c1ccccc1)c1ccccc1
T/C (dose: 100.0 mg/kg/injection, schedule: Q04DX003 (ip), vehicle: saline with Tween-80): 102 % of control | T/C (dose: 200.0 mg/kg/injection, schedule: Q04DX003 (ip), vehicle: saline with Tween-80): 102 % of control | T/C (dose: 400.0 mg/kg/injection, schedule: Q04DX003 (ip), vehicle: saline with Tween-80): 102 % of control

COc1cccc2c1C(=O)c1c(O)c3c(c(O)c1C2=O)C[C@@](O)(C(C)=O)C[C@@H]3OC1CC(NC(C)=O)C(O)C(C)O1 (stereo partly drawn)
T/C [12]: 169 % of control | T/C [14]: 198 % of control | T/C [15]: 308 % of control | T/C [16]: 227 % of control

CC(=O)OC1C(CO)OC2C1Oc1nc(=N)c(F)cn12 (stereo not drawn)
T/C [11]: 88 % of control | T/C [12]: 93 % of control | T/C [14]: 90 % of control | T/C [15]: 86 % of control | T/C [16]: 91 % of control

Cc1ccc(C(=O)C=C(C(F)(F)F)C(F)(F)F)cc1
T/C [13]: 111 % of control | T/C [17]: 100 % of control | T/C [18]: 105 % of control

CC(C)CN(CCCCO)CC(C)C
T/C [5]: 102 % of control | T/C [6]: 111 % of control | T/C [7]: 98 % of control

CC(=O)CC(=O)Nc1cccc(O)c1
T/C [1]: 92 % of control | T/C [2]: 92 % of control | T/C [3]: 86 % of control

COc1ccc(C(=O)Nc2ccccc2)cc1[N+](=O)[O-]
T/C [1]: 89 % of control | T/C [2]: 100 % of control | T/C [3]: 94 % of control

CCCCCCCCCCCCCCCC(=O)N(C/C=C/CN(CCCN(C)C)C(=O)CCCCCCCCCCCCCCC)CCCN(C)C
T/C (dose: 0.78 mg/kg/injection, schedule: Q01DX009 (ip), vehicle: saline with Tween-80): 86 % of control | T/C [10]: 90 % of control | T/C (dose: 1.6 mg/kg/injection, schedule: Q01DX009 (ip), vehicle: saline with Tween-80): 104 % of control | T/C (dose: 3.13 mg/kg/injection, schedule: Q01DX009 (ip), vehicle: saline with Tween-80): 97 % of control | T/C (dose: 3.2 mg/kg/injection, schedule: Q01DX009 (ip), vehicle: saline with Tween-80): 95 % of control | T/C (dose: 6.25 mg/kg/injection, schedule: Q01DX009 (ip), vehicle: saline with Tween-80): 95 % of control | T/C (dose: 6.3 mg/kg/injection, schedule: Q01DX009 (ip), vehicle: saline with Tween-80): 91 % of control | T/C [17]: 177 % of control | T/C [4]: 158 % of control | T/C [18]: 163 % of control | T/C (dose: 50.0 mg/kg/injection, schedule: Q04DX003 (ip), vehicle: saline with Tween-80): 155 % of control

O=[N+]([O-])c1ccc(OCc2ccc(S(=O)(=O)F)c(Cl)c2)c(Cl)c1
T/C [1]: 102 % of control | T/C [2]: 100 % of control | T/C [3]: 97 % of control

CCOC(=O)C(=O)c1c(C)[nH]c2ccccc12
T/C [1]: 113 % of control | T/C [2]: 106 % of control | T/C [3]: 106 % of control

ClCc1ccc(Oc2ccc(CCl)cc2)cc1
T/C (dose: 6.25 mg/kg/injection, schedule: Q01DX009 (ip), vehicle: Klucel (hydroxypropylcellulose) (HPC)): 101 % of control | T/C [19]: 101 % of control and 115 % of control | T/C [20]: 105 % of control | T/C [21]: 115 % of control and 124 % of control

O=[N+]([O-])c1cc(Cl)c(Cl)cc1NS(=O)(=O)c1ccccc1
T/C (dose: 150.0 mg/kg/injection, schedule: Q01DX009 (ip), vehicle: saline with Tween-80): 100 % of control | T/C (dose: 300.0 mg/kg/injection, schedule: Q01DX009 (ip), vehicle: saline with Tween-80): 90 % of control

CC(=O)Nc1ccc(NC(=O)c2ccc([As](O)O)cc2)cc1
T/C [19]: 104 % of control | T/C [20]: 105 % of control | T/C [21]: 91 % of control | T/C [1]: 105 % of control

C#CCSC(=S)NNc1ccccc1
T/C [6]: 106 % of control | T/C [7]: 112 % of control

Cc1cn(C2CC(O)C(CO)O2)c(=O)[nH]c1=O (stereo not drawn)
T/C [14]: 88 % of control | T/C (dose: 32.0 mg/kg/injection, schedule: Q01DX009 (ip), vehicle: saline with Tween-80): 111 % of control | T/C (dose: 32.0 mg/kg/injection, schedule: Q01DX009 (ip), vehicle: saline): 95 % of control and 108 % of control | T/C (dose: 50.0 mg/kg/injection, schedule: Q03HX032 (ip), vehicle: saline): 105 % of control | T/C (dose: 64.0 mg/kg/injection, schedule: Q01DX009 (ip), vehicle: saline with Tween-80): 120 % of control | T/C (dose: 64.0 mg/kg/injection, schedule: Q01DX009 (ip), vehicle: saline): 100 % of control and 101 % of control | T/C [8]: 103 % of control | T/C (dose: 100.0 mg/kg/injection, schedule: Q03HX032 (ip), vehicle: saline): 97 % of control | T/C (dose: 128.0 mg/kg/injection, schedule: Q01DX009 (ip), vehicle: saline with Tween-80): 120 % of control | T/C (dose: 128.0 mg/kg/injection, schedule: Q01DX009 (ip), vehicle: saline): 98 % of control and 103 % of control | T/C (dose: 150.0 mg/kg/injection, schedule: Q02HX012 (ip), vehicle: saline): 103 % of control | T/C [9]: 89 % of control | T/C (dose: 200.0 mg/kg/injection, schedule: Q02HX012 (ip), vehicle: saline): 102 % of control | T/C (dose: 200.0 mg/kg/injection, schedule: Q03HX032 (ip), vehicle: saline): 89 % of control | T/C (dose: 256.0 mg/kg/injection, schedule: Q01DX009 (ip), vehicle: saline with Tween-80): 120 % of control | T/C (dose: 256.0 mg/kg/injection, schedule: Q01DX009 (ip), vehicle: saline): 96 % of control and 102 % of control | T/C (dose: 300.0 mg/kg/injection, schedule: Q02HX012 (ip), vehicle: saline): 102 % of control | T/C (dose: 400.0 mg/kg/injection, schedule: Q02HX012 (ip), vehicle: saline): 102 % of control | T/C (dose: 400.0 mg/kg/injection, schedule: Q03HX032 (ip), vehicle: saline): 92 % of control | T/C (dose: 512.0 mg/kg/injection, schedule: Q01DX009 (ip), vehicle: saline with Tween-80): 91 % of control | T/C (dose: 512.0 mg/kg/injection, schedule: Q01DX009 (ip), vehicle: saline): 104 % of control and 107 % of control | T/C (dose: 600.0 mg/kg/injection, schedule: Q02HX012 (ip), vehicle: saline): 97 % of control
